Measured values from paper PMC10165889 (European journal of medicinal chemistry, 2023).
In brackets after ≈: the same amount, converted by molar mass.

Columns and labels:
in vitro [1] = conditions: human, microsomes
physchem = conditions: phosphate buffer, pH 7.4
[2] = incubation 0.5h, UV; table
BRD2 (BD1) = BRD2 (BD1) (Homo sapiens, UniProt P25440); test: TR-FRET binding assay, BRD2
BRD4(BD2) = BRD4(BD2) (Homo sapiens, UniProt O60885); test: TR-FRET binding assay, BRD4
[3] = In vivo pharmacokinetic study in female CD1 mice; conditions: P.O. 3mg/kg and 10mg/kg
BRD4 (BD1) = BRD4 (BD1) (Homo sapiens, UniProt O60885); test: TR-FRET binding assay, BRD4
[4] = incubation up to 48h
BET isoforms = test: BROMOscan profiling; conditions: all BET isoforms (Figure S2)
MYC = MYC protein abundance by immunoblotting in MV4-11; format: cell-based; conditions: MV4–11, 6 hours incubation, 100 nM
NALM16 leukaemia cells = test: Cancer cell viability, CellTiter-Glo, NALM16; format: cell-based; conditions: NALM16, 72 h, read-out: NALM16, IC50
[5] = tested on: HDMB03 medulloblastoma cells; test: cells; format: cell-based; conditions: Homo sapiens, HD-MB03, 72 h, read-out: HDMB03, IC50
[6] = format: in vitro ADME; conditions: RED assay
in vitro [7] = conditions: human, plasma
BRD2(BD2) = BRD2(BD2) (Homo sapiens, UniProt P25440); test: TR-FRET binding assay, BRD2
BRD2(BD2), sequence (P25440 344-453 limits assumed): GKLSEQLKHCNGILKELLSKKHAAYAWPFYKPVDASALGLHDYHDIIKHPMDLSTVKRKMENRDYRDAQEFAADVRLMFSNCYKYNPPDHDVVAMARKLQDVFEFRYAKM

in vitro [8] = conditions: human; for Papp B→A: Caco-2; for Papp: Caco-2, Caco2 A/B (Papp), A to B
[9] = tested on: D283 medulloblastoma cells; test: Cancer cell viability, CellTiter-Glo, D283; format: cell-based; conditions: D283, 72 h, read-out: D283, IC50
[10] = tested on: MOLM-13 acute leukaemia cells; test: Cancer cell viability, CellTiter-Glo, MOLM-13; format: cell-based; conditions: Homo sapiens, MOLM-13, 72 h, read-out: MOLM-13, IC50

BRD2 (BD1), sequence (P25440 74-180 limits assumed): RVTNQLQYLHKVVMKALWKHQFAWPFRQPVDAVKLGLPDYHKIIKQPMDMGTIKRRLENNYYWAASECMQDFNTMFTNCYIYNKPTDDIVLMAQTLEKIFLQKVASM

Structure (SMILES): Cc1sc2c(c1C)C(c1ccc(Cl)cc1)=N[C@@H](CC(=O)NCc1cn(C)nn1)c1nnc(C)n1-2 [1e]
- half-life (in vitro [1]): 0.5 h
- solubility at 18 h (physchem): 80.8 µM (≈ 40 µg/mL)
- PAMPA [2]: 14.0 10^−6cm/s

Structure (SMILES): Cc1sc2c(c1C)C(c1ccc(Cl)cc1)=N[C@@H](CC(=O)NCc1c[nH]nn1)c1nnc(C)n1-2 [1d]
- IC50 (BRD2 (BD1)): 8.6 nM
- half-life (in vitro [1]): 0.6 h
- solubility at 18 h (physchem): 57.4 µM (≈ 27.6 µg/mL)
- IC50 (BRD4(BD2)): 1.3 nM

Structure (SMILES): Cc1sc2c(c1C)C(c1ccc(Cl)cc1)=N[C@@H](CC(=O)Nc1nncs1)c1nnc(C)n1-2 [1q]
- oral bioavailability in words [3]: high bioavailability
- IC50 (BRD4 (BD1)): 6.5 nM
- IC50 (BRD2 (BD1)): 1.6 nM
- human plasma stability [4]: 100%
- affinity in BROMOscan profiling (BET isoforms): high affinity for all BET isoforms
- MYC protein abundance (MYC): around 50%
- IC50 (NALM16 leukaemia cells): 3.6 nM
- IC50 [5]: 6.6 nM

Structure (SMILES): Cc1sc2c(c1C)C(c1ccc(Cl)cc1)=N[C@@H](CC(=O)NCc1cn(C)cn1)c1nnc(C)n1-2 [1f]
- half-life (in vitro [1]): 0.5 h
- solubility at 18 h (physchem): 65.7 µM (≈ 32.5 µg/mL)
- PAMPA [2]: 0.0 10^−6cm/s

Structure (SMILES): Cc1sc2c(c1C)C(c1ccc(Cl)cc1)=N[C@@H](CC(=O)NCc1ccon1)c1nnc(C)n1-2 [1h]
- PB (human plasma binding) [6]: 93.5%

Structure (SMILES): COC(=O)C(Cc1c[nH]cn1)NC(=O)C[C@@H]1N=C(c2ccc(Cl)cc2)c2c(sc(C)c2C)-n2c(C)nnc21 (some centres unmarked) [1j]
- half-life (in vitro [1]): 4.7 h
- solubility at 18 h (physchem): 68.4 µM (≈ 37.8 µg/mL)
- half-life (in vitro [7]): 24.7 h
- IC50 (BRD4(BD2)): 6.5 nM
- PAMPA [2]: 0.0 10^−6cm/s
- PB (human plasma binding) [6]: 92.7%

Structure (SMILES): Cc1sc2c(c1C)C(c1ccc(Cl)cc1)=N[C@@H](CC(=O)Nc1ccc(O)cc1)c1nnc(C)n1-2 [1c, birabresib, reference compound]
- PB (human plasma binding) [6]: 97.3%

Structure (SMILES): Cc1sc2c(c1C)C(c1ccc(Cl)cc1)=N[C@@H](CC(=O)Nc1nccs1)c1nnc(C)n1-2 [1o]
- IC50 (BRD2 (BD1)): 10.9 nM
- half-life (in vitro [1]): 1.1 h
- solubility at 18 h (physchem): 12.4 µM (≈ 5.99 µg/mL)
- IC50 (BRD2(BD2)): 2.6 nM
- Papp B→A (in vitro [8]): 4.11 ×10⁻⁶ cm/s
- Papp (in vitro [8]): 1.91 ×10⁻⁶ cm/s
- IC50 (NALM16 leukaemia cells): 6.4 nM
- PB (human plasma binding) [6]: 98.2%

Structure (SMILES): Cc1sc2c(c1C)C(c1ccc(Cl)cc1)=N[C@@H](CC(=O)NCC(=O)O)c1nnc(C)n1-2 [1l]
- half-life (in vitro [1]): 11.3 h
- solubility at 18 h (physchem): 66.4 µM (≈ 30.4 µg/mL)
- PAMPA [2]: 0.5 10^−6cm/s
- IC50 [9]: > 8850 nM

Structure (SMILES): Cc1sc2c(c1C)C(c1ccc(Cl)cc1)=N[C@@H](CC(=O)NCCO)c1nnc(C)n1-2 [1n]
- half-life (in vitro [1]): 3.2 h
- IC50 [10]: 8.8 nM
- solubility at 18 h (physchem): 76.1 µM (≈ 33.8 µg/mL)
- half-life (in vitro [7]): > 100 h
- Papp B→A (in vitro [8]): 8.33 ×10⁻⁶ cm/s
- Papp (in vitro [8]): 0.7 ×10⁻⁶ cm/s

Structure (SMILES): Cc1sc2c(c1C)C(c1ccc(Cl)cc1)=N[C@@H](CC(=O)NCc1ncco1)c1nnc(C)n1-2 [1i]
- IC50 (NALM16 leukaemia cells): 0.8 nM

Structure (SMILES): Cc1sc2c(c1C)C(c1ccc(Cl)cc1)=N[C@@H](CC(=O)NCc1ccccc1)c1nnc(C)n1-2 [1g]
- half-life (in vitro [1]): 0.1 h
- solubility at 18 h (physchem): 34.1 µM (≈ 16.7 µg/mL)

Structure (SMILES): Cc1sc2c(c1C)C(c1ccc(Cl)cc1)=N[C@@H](CC(=O)NCc1ccccn1)c1nnc(C)n1-2 [1k]
- half-life (in vitro [1]): 0.1 h
- solubility at 18 h (physchem): 72.5 µM (≈ 35.6 µg/mL)
- half-life (in vitro [7]): > 100 h
- Papp B→A (in vitro [8]): 56.8 ×10⁻⁶ cm/s
- Papp (in vitro [8]): 9.84 ×10⁻⁶ cm/s
- IC50 (NALM16 leukaemia cells): 14.8 nM
